{"source": "patent US11472791B2", "about": "(Incyte Corporation, priority 2019, dated 2022)", "key": {"[1]": {"tested_on": "Rb phosphorylation at S780 in CCNE1-non-amplified cell lines (COV504 and OV56)", "assay": "Western blot of Rb phosphorylation at S780, CCNE1-non-amplified cell lines", "format": "cell-based, human", "conditions": "COV504 and OV56, various doses, 1 or 15 hours", "procedure": "(§1) The effect of CDK4/6-inhibition on Rb phosphorylation at S780 in CCNE1-amplified versus CCNE1-non-amplified cell lines was evaluated. […] One or 15 hours after treatment, the cells were harvested and total protein was extracted and analyzed by western blot (FIG. 8).\n(§2) Whole cell extracts were prepared using RIPA buffer (Thermo Scientific, 89900) with a Halt Protease and Phosphatase Inhibitor Cocktail (Thermo Scientific, 78440). Protein concentration was quantified with a BCA Protein Assay Kit (Thermo Scientific, 23225) and 40 μg of protein lysates were loaded for SDS-PAGE using precast gradient gels (Bio-Rad, Hercules, No. 456-1094). Samples were diluted in 5× Laemmli buffer (300 mM Tris-HCl pH 6.8, 10% SDS (w/v), 5% 2-mercaptoethanol, 25% glycerol (v/v), 0.1% bromophenol blue w/v) and boiled for 5 minutes. 35 μg of proteins were separated by 8-15% SDS-PAGE and transferred onto polyvinylidene fluoride (PVDF) membranes. Unspecific binding sites on the PVDF membranes were blocked with 5% non-fat milk in TEST (20 mM Tris-HCl, pH 7.6, 137 mM NaCl, 1% Tween-20). […] Images were captured by Luminescence/Fluorescence Imaging System Odyssey CLx Imager (LI-COR)."}, "[2]": {"tested_on": "CCNE1-amplified cell lines (COV318 and OVCAR3)", "assay": "Cell cycle analysis by FACS, CCNE1-amplified cell lines", "format": "cell-based, human", "conditions": "for inhibition of proliferation: CCNE1-amplified OVCAR3 cells, 16 hours, increasing concentrations, vs DMSO", "procedure": "(§3) The effect of CDK4/6-inhibition in CCNE1-amplified versus CCNE1-non-amplified cell lines was evaluated.\n(§4) A similar experiment was performed in a larger set of CCNE1-amplified cell lines (COV318 and OVCAR3) and CCNE1-non-amplified cell lines (COV504, OV56, and Igrov1) (FIG. 6).\n(§5) Bulk DNA was stained with DAPI. Compound-treated and DMSO treated control cells were acquired with CytoFlex (Beckman Coulter) and were analyzed using the FlowJo software. For cell cycle analysis of cells with siRNA knockdown, 72 hours after siRNA transfection, cells exposed to 10 μM EdU for 3 hours before detection of Click-iT Alexa Fluor® 647 azide kit."}, "[3]": {"tested_on": "Rb phosphorylated on serine 780 in CCNE1 amplified COV318 cells", "assay": "CDK2 pRb (S780) HTRF cellular assay", "format": "cell-based", "conditions": "Homo sapiens, read-out: IC50 in p-RB S780 HTRF cellular assay"}, "[4]": {"tested_on": "Rb phosphorylation at S780 in CCNE1-amplified cell lines (OVCAR3 and COV318)", "assay": "Western blot of Rb phosphorylation at S780, CCNE1-amplified cell lines", "format": "cell-based, human", "conditions": "OVCAR3 and COV318, various doses, 1 or 15 hours; listed as Palbociclib", "procedure": "as §1, §2"}, "[5]": {"tested_on": "CCNE1-non-amplified cell lines (COV504, OV56, and Igrov1)", "assay": "Cell cycle analysis by FACS, CCNE1-non-amplified cell lines", "format": "cell-based, human", "conditions": "for inhibition of proliferation: CCNE1-non-amplified COV504 cells, 16 hours, increasing concentrations, vs DMSO; for percentage of cells at the S phase: COV504, OV56, Igrov1, 16 hours after treatment, compared to DMSO", "procedure": "as §3, §4, §5"}}, "data": [{"compound": "CC(=O)c1c(C)c2cnc(Nc3ccc(N4CCNCC4)cn3)nc2n(C2CCCC2)c1=O", "note": "[palbociclib]", "values": [{"measurement": "Rb phosphorylation at S780", "setting": "[1]", "value": "blocked Rb phosphorylation at S780"}, {"measurement": "Rb phosphorylation at S780", "setting": "[1]; listed as Palbociclib", "value": "blocks RB phosphorylation at S780"}, {"measurement": "inhibition of proliferation", "setting": "[2]", "value": "not in CCNE1-amplified cells"}, {"measurement": "inhibition of proliferation", "setting": "[2]; listed as Palbociclib", "value": "not in amplified cell lines"}, {"measurement": "percentage of cells at the S phase", "setting": "[2]; COV318 and OVCAR3, 16 hours after treatment, compared to DMSO", "value": "not significantly different"}, {"measurement": "IC50", "setting": "[3]", "value": "> 3000", "unit": "nM"}, {"measurement": "Rb phosphorylation at S780", "setting": "[4]", "value": "not in amplified ovarian cells"}, {"measurement": "inhibition of proliferation", "setting": "[5]", "value": "dose-dependent inhibition of the proliferation"}, {"measurement": "inhibition of proliferation", "setting": "[5]; listed as Palbociclib", "value": "dose-dependent inhibition of proliferation"}, {"measurement": "percentage of cells at the S phase", "setting": "[5]", "value": "decreased in CCNE1-non-amplified cell lines in a dose-dependent fashion"}, {"measurement": "percentage of cells at the S phase", "setting": "[5]; listed as Palbociclib", "value": "selectively inhibits proliferation"}]}]}
